Values joined by “and” are separate entries in the source; they are usually repeats but may differ in a detail not shown here. Equal entries are not always repeated.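 Grown in 96-well plates, cells were treated for 48 hours with each compound at five concentrations. Insufficient inhibition: endpoint recorded as highest concentration tested. GI50 marks 50% less growth. The concentration for full growth arrest is given as TGI.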
Key:
Experiment in all cases: NCI tumour cell line growth inhibition, 48 h
786-0 renal = test system: 786-0 renal
DU-145 prostate = test system: DU-145 prostate
HCT-116 colon = test system: HCT-116 colon
HCT-15 colon = test system: HCT-15 colon
NCI-H226 lung = test system: NCI-H226 lung
NCI-H23 lung = test system: NCI-H23 lung
OVCAR-5 ovarian = test system: OVCAR-5 ovarian
PC-3 prostate = test system: PC-3 prostate
SK-MEL-5 melanoma = test system: SK-MEL-5 melanoma
SNB-75 CNS = test system: SNB-75 CNS

SMILES | GI50 (786-0 renal) [µM] | TGI (786-0 renal) [µM] | GI50 (DU-145 prostate) | TGI (DU-145 prostate) | GI50 (HCT-116 colon) | TGI (HCT-116 colon) | GI50 (HCT-15 colon) | TGI (HCT-15 colon) | GI50 (NCI-H226 lung) | TGI (NCI-H226 lung) | GI50 (NCI-H23 lung) | TGI (NCI-H23 lung) | GI50 (OVCAR-5 ovarian) | TGI (OVCAR-5 ovarian) | GI50 (PC-3 prostate) | TGI (PC-3 prostate) | GI50 (SK-MEL-5 melanoma) | TGI (SK-MEL-5 melanoma) | GI50 (SNB-75 CNS) | TGI (SNB-75 CNS)
CC[C@]12C=CCN3CC[C@@]4(c5ccc(OC)cc5N(C)[C@H]4[C@@](O)(C(=O)OC)[C@@H]1OC(=O)CCC[P+](c1ccccc1)(c1ccccc1)c1ccccc1)[C@@H]32 | 2.13 | 8.03 | 1.09 µM and 0.768 µM | 6.47 µM and 11.8 µM | 0.727 µM and 0.627 µM | 5.59 µM and 10.4 µM | 8.69 µM and 14.2 µM | 20.7 µM and 28.8 µM | 1.91 µM and 1.93 µM | 8.62 µM and 12.4 µM | 1.11 µM and 0.984 µM | 5.5 µM and 7.77 µM | 1.19 µM and 1.38 µM | 5.91 µM and 11 µM | 0.224 µM and 0.345 µM | 5.13 µM and 2.59 µM | 0.817 µM and 1.65 µM | 1.53 µM and 3.02 µM | 0.554 µM and 0.218 µM | 3.58 µM and 1.23 µM
CCCCCCCCCC/C=C/CC(=O)SCCNC(=O)CCNC(=O)[C@@H](O)C(C)(C)COP(=O)(O)OP(=O)(O)OCC1OC(n2cnc3c(N)ncnc32)C(O)C1OP(=O)(O)O (some centres not stated) | – | > 10 | – | > 10 µM | – | > 10 µM | – | > 10 µM | – | > 10 µM | – | > 10 µM | – | > 10 µM | – | > 10 µM | – | > 10 µM | – | > 10 µM
C=C(C=O)C1CCC2(C(=O)O)CCC3(C)C(CCC4C5(C)CCC(O)C(C)(C)C5CCC43C)C12 (configuration not stated) | 2.48 | 6.73 | 1.6 µM | 3.55 µM | 1.4 µM | 2.83 µM | 1.65 µM | 4.47 µM | 14.3 µM | > 100 µM | 1.63 µM | 3.3 µM | 2.99 µM | 6.82 µM | 2.76 µM | 23.2 µM | 1.52 µM | 2.84 µM | 10.8 µM | 32.6 µM
O=C1NC(=Nc2ccccc2)S/C1=C\c1ccc2ncccc2c1 | > 25 | > 25 | > 25 µM | > 25 µM | 1.14 µM | > 25 µM | 1.1 µM | > 25 µM | > 25 µM | > 25 µM | 5.89 µM | > 25 µM | > 25 µM | > 25 µM | 1.67 µM | > 25 µM | > 25 µM | > 25 µM | – | > 25 µM
COc1ccc2c(c1)CCC1C2CC[C@@]2(C)C1CC1=CC(COC(C)=O)C3C(=O)c4ccccc4C(=O)C3C12 (some centres not stated) | > 100 | > 100 | > 100 µM | > 100 µM | > 100 µM | > 100 µM | > 100 µM | > 100 µM | > 100 µM | > 100 µM | > 100 µM | > 100 µM | > 100 µM | > 100 µM | 48.4 µM | > 100 µM | > 100 µM | > 100 µM | 36.3 µM | > 100 µM
CNCCNc1c2c(c(NCCNC)c3c(CN(C)C)c[nH]c13)C(=O)c1ccccc1C2=O | 4.87 | 19.5 | 1.53 µM | 5.93 µM | 1.55 µM | 8.29 µM | 5.7 µM | 20.5 µM | 6.69 µM | 24.2 µM | 2.22 µM | – | 2.95 µM | 13.9 µM | 0.969 µM | 5.64 µM | 2.98 µM | 14.2 µM | 7.14 µM | 22 µM
CC(=O)OC1Oc2ccccc2-c2oc(=O)c(-c3cc(=O)oc4cc(O)ccc34)cc21 (configuration not stated) | 16.2 | 38.4 | 19.4 µM | 50.5 µM | 25 µM | > 100 µM | 21.3 µM | 96.4 µM | 27.1 µM | 67.3 µM | 5.53 µM | 25.6 µM | 26.6 µM | 57.2 µM | 16.2 µM | 55.6 µM | 13.2 µM | 26.5 µM | 22.3 µM | 72.2 µM
COc1ccc(N(C)c2ncnc3occ(C)c23)cc1 | < 0.01 | > 100 | < 0.01 µM | 0.0208 µM | < 0.01 µM | 0.197 µM | < 0.01 µM | – | < 0.01 µM | 0.0761 µM | < 0.01 µM | > 100 µM | < 0.0113 µM | > 100 µM | < 0.01 µM | > 51.8 µM | < 0.01 µM | < 0.0149 µM | < 0.01 µM | > 52 µM
Cc1ccc(C(SCC(N)C(=O)O)(c2ccccc2)c2ccc(C)cc2)cc1 (configuration not stated) | 2.21 | 24.4 | 0.287 µM | 2.66 µM | 0.0449 µM | 7.06 µM | 0.367 µM | 23.9 µM | 3.02 µM | 25.8 µM | 0.423 µM | 23.7 µM | 1.11 µM | 24.4 µM | 0.314 µM | 30.4 µM | 0.0465 µM | 13.8 µM | 0.334 µM | 17.7 µM
COc1cc(Nc2cn[nH]c2-c2ccc(Cl)cc2)cc(OC)c1OC | 6.8 | 36.2 | 8.73 µM | 42 µM | 3.73 µM | 13.7 µM | 4.35 µM | 50 µM | 11.7 µM | 30.4 µM | 8.33 µM | > 60.8 µM | 15.9 µM | > 77.1 µM | 8.18 µM | > 64 µM | 3.58 µM | 14.6 µM | 1.14 µM | 7.66 µM
COc1ncnc(C2CC2)c1-c1ncc2cnn(Cc3ccc(-c4nc(C(F)(F)F)cn4C(C)C)cc3)c2n1 | 31.4 | > 100 | 22.1 µM | > 100 µM | 22.2 µM | > 100 µM | 17 µM | 90.7 µM | 9.08 µM | 50.7 µM | 21.8 µM | 78 µM | 26.2 µM | > 100 µM | 17.5 µM | > 100 µM | 12.6 µM | 25.2 µM | 5.36 µM | 53.6 µM
Cn1cc(C2=C(c3ccc4ccccc4c3)C(=O)NC2=O)c2ccccc21 | > 25 | > 25 | > 25 µM | > 25 µM | 15.6 µM | > 25 µM | 6.27 µM | > 25 µM | > 25 µM | > 25 µM | > 25 µM | > 25 µM | > 25 µM | > 25 µM | > 25 µM | > 25 µM | > 25 µM | > 25 µM | 7.47 µM | > 25 µM
